Literature values in PubChem BioAssay AID1259409 (Chemical Carcinogenesis Research Information System (CCRIS), 2018).

Tested on: rodent chemically induced tumor inhibition, incidence and multiplicity
Assay: CCRIS tumor inhibitor studies

Structure (SMILES)	tumour outcome (control, treated, inhibition, significance) (Carcinogen: 1,2-DIMETHYLHYDRAZINE, 540-73-8, Dose [Inhibitor]: 0, 96 UMOL/KG 4/D FOR 32 WK BEGINNING 1 WK POST CARCINOGEN DOSE (STUDY DURATION: 33 WK), Route [Inhibitor]: INTRAMUSCULAR, Species: RAT, Strain/Sex: F344/MALE, Target Tissue: Type of Lesion: LIVER: HEPATOCELLULAR CARCINOMA, Dose [Carcinogen]: 100 MG/KG ONCE 18 HR AFTER RATS WERE SUBJECTED TO TWO-THIRDS HEPATECTOMY, Promoter: OROTIC ACID, 65-86-1)	tumour outcome (control, treated, inhibition, significance) (Carcinogen: DIETHYLNITROSAMINE, 55-18-5, N-ACETYLAMINOFLUORENE, 53-96-3, Carcinogen: DIETHYLNITROSAMINE, 55-18-5, N-ACETYLAMINOFLUORENE, 53-96-3, Dose [Inhibitor]: 0, 64 UMOL/KG 6/D FOR 24 WK BEGINNING POST CARCINOGEN TREATMENT (STUDY DURATION: 28 MO), Route [Inhibitor]: INTRAMUSCULAR, Species: RAT, Strain/Sex: WISTAR/MALE, Target Tissue: Type of Lesion: LIVER: CARCINOMA, Dose [Carcinogen]: 150 MG/KG DEN ONCE THEN 2 WK LATER 0.03% AAF IN DIET FOR 2 WK WITH A PARTIAL HEPATECTOMY PERFORMED MIDWAY THROUGH CARCIN, Promoter: PHENOBARBITAL, 50-06-6)	tumour outcome (control, treated, inhibition, significance) (Carcinogen: 7,12-DIMETHYLBENZ[A]ANTHRACENE, 57-97-6, Dose [Inhibitor]: 0.03 MMOL/G DIET DAILY STARTING 8 D PRIOR TO AND CONTINUING THROUGH CARCINOGEN ADMINISTRATION FOLLOWED BY A 14 WK OBSERV, Route [Inhibitor]: ORAL, Species: RAT, Strain/Sex: SPRAGUE-DAWLEY/FEMALE, Target Tissue: Type of Lesion: MAMMARY GLAND: TUMOR, Dose [Carcinogen]: 12 MG IN 1 ML OLIVE OIL ONCE, Promoter: NONE USED)	tumour outcome (control, treated, inhibition, significance) (Carcinogen: 7,12-DIMETHYLBENZ[A]ANTHRACENE, 57-97-6, Dose [Inhibitor]: 0.1 MMOL IN 1 ML DIMETHYL SULFOXIDE ONCE 20 HR PRIOR TO CARCINOGEN ADMINISTRATION FOLLOWED BY A 14 WK OBSERVATION PERIOD, Route [Inhibitor]: GAVAGE, Species: RAT, Strain/Sex: SPRAGUE-DAWLEY/FEMALE, Target Tissue: Type of Lesion: MAMMARY GLAND: TUMOR, Dose [Carcinogen]: 12 MG IN 1 ML OLIVE OIL ONCE, Promoter: NONE)	tumour outcome (control, treated, inhibition, significance) (Carcinogen: 7,12-DIMETHYLBENZ[A]ANTHRACENE, 57-97-6, Dose [Inhibitor]: 0.1 MMOL IN 1 ML DIMETHYL SULFOXIDE ONCE 20 HR PRIOR TO CARCINOGEN ADMINISTRATION FOLLOWED BY A 14 WK OBSERVATION PERIOD, Route [Inhibitor]: GAVAGE, Species: RAT, Strain/Sex: SPRAGUE-DAWLEY/FEMALE, Target Tissue: Type of Lesion: MAMMARY GLAND: TUMOR, Dose [Carcinogen]: 12 MG IN 1 ML OLIVE OIL ONCE, Promoter: NONE USED)	tumour outcome (control, treated, inhibition, significance) (Carcinogen: BENZO[A]PYRENE, 50-32-8, Dose [Inhibitor]: 0.03 MMOL/G DIET DAILY STARTING AT 63 D OF AGE (8 D PRIOR TO START OF CARCINOGEN TREATMENT) THROUGH 98 D OF AGE FOLLOWED, Route [Inhibitor]: ORAL, Species: MOUSE, Strain/Sex: ICR/FEMALE, Target Tissue: Type of Lesion: FORESTOMACH: TUMOR, Dose [Carcinogen]: 1 MG IN 0.2 ML CORN OIL ADMINISTERED 2/WK FOR 4 WK, Promoter: NONE USED)	tumour outcome (control, treated, inhibition, significance) (Carcinogen: BENZO[A]PYRENE, 50-32-8, Dose [Inhibitor]: 0.03 MMOL/G DIET DAILY STARTING AT 63 D OF AGE (8 D PRIOR TO START OF CARCINOGEN TREATMENT) THROUGH 126 D OF AGE FOLLOWE, Route [Inhibitor]: ORAL, Species: MOUSE, Strain/Sex: ICR/FEMALE, Target Tissue: Type of Lesion: FORESTOMACH: TUMOR, Dose [Carcinogen]: 0.3 MG IN 0.2 ML CORN OIL ADMINISTERED 3/WK FOR 8 WK, Promoter: NONE USED)
C[S+](CC[C@H](N)C(=O)[O-])C[C@H]1O[C@@H](n2cnc3c(N)ncnc32)[C@H](O)[C@@H]1O (some centres not stated)	6/16 (38%), 1/24 (4%), 89%, not calculated	10/10 (100%), 3/11 (27%), 73%, p<0.025					
N#CCc1c[nH]c2ccccc12			73%, 54%, 26%, not significant	91%, 73%, 20%, not significant	60%, 50%, 17%, not significant	93%, 68%, 27%, not significant	100%, 44%, 56%, p<0.01
